The values below come from patent US20160136193A1, “TREATMENT OF SYMPTOMS ASSOCIATED WITH BACTERIAL VAGINOSIS” (IDH Holding ApS, priority 2003, published 2016).

In one data set the test system is Bacterial Vaginosis. The conditions noted are these: cited from earlier work.
Data set [1] has as its system symptoms associated with bacterial vaginosis. In words: Treatment of a person with recurrent vaginal fishy-smelling secretions (Example 9). It counts as in vivo, human. The conditions noted are these: after two 7-day treatments. How it is done: A person had suffered from discomfort and vaginal secretions of fishy smell recurring after two 7-day treatments with metronidazole. The vaginal pH was approximately 5.3, varying between 5.0 and 5.5.
A lactose suspension (1-3 ml) as prepared in Example 8 was instilled into the vagina twice daily. After approximately 24 hours the pH lowered to 4.7 and the fishy odor disappeared. Continuous application once a day further lowered the pH down to approximately 4.4. The treatment was continued for 4 days.
After 4 days symptoms such as the fishy odor recurred; however, the symptoms disappeared after one day of the treatment described above.

For `CCC[C@@H]1C[C@@H](C(=O)N[C@@H]([C@H]2O[C@H](SC)[C@H](O)[C@@H](O)[C@H]2O)[C@H](C)Cl)N(C)C1` [Clindamycin], in the data set with Bacterial Vaginosis (7-day treatment), the side effects entry was “less, though diarrhea is possible”.

As for `Cc1ncc([N+](=O)[O-])n1CCO` [Metronidazole], the cure rate with Bacterial Vaginosis (7-day treatment, after 1 month) is 80-90%. Moreover, in the data set on Bacterial Vaginosis (7-day treatment), the side effects result was “nausea, abdominal cramps and a metallic taste”. The “discomfort and vaginal secretions of fishy smell after treatment” value in data set [1] was “recurring”.

Regarding Lactobacillus acidophilus, the benefits in studies result in the data set on Bacterial Vaginosis (alternative measures) was “have not demonstrated benefits”.
